Source: patent US20250057751A1, “PEPTIDE HAVING ACTIVITY OF IMPROVING STATE OF SKIN, AND USE THEREOF” (CAREGEN CO., LTD., priority 2021, published 2025)

Assays:
[1] = system: NIH3T3 cells; assay: Proliferation promoting effect on skin cells (SRB staining, absorbance at 560 nm); type: cell-based, mouse; conditions: 50 μM or 100 μM peptide, 72 hours, serum-free DMEM, FIG. 1A
Procedure: (§1) In this example, the aim was to confirm the effect of a peptide according to an example on proliferation of skin cells, by evaluating changes in survival rate of NIH3T3 cells, which are mouse fibroblasts, or HaCaT cells, which are human keratinocytes.
(§2) Specifically, NIH3T3 cells or HaCaT cells were seeded in a 96-well plate at a density of 5×10^3 cells/well and cultured for 24 hours. The cells were then washed once with serum-free DMEM media, and the culture medium was replaced with serum-free DMEM media. Then, 50 μM or 100 μM of the peptide consisting of the amino acid sequence of SEQ ID NO: 1 was dispensed into the medium, and cultured in a CO2 incubator at 37° C. for 72 hours. The culture was then washed twice with PBS and treated with 4% paraformaldehyde (PFA) solution for 15 minutes to fix the cultured cells. The culture was then washed twice with distilled water, treated with SRB solution for 1 hour to stain the cells, washed with 1% acetic acid solution, and dried. The dried culture was then dissolved in 20 mM Tris buffer solution and the absorbance at 560 nm was measured using a microplate reader (Molecular Devices, USA). In this example, the untreated group was used as the control group, and the group to which insulin-like growth factor was added (IGF) was used as the positive control group.

[2] = system: HaCaT cells; assay: as above; type: cell-based, human; conditions: 50 μM or 100 μM peptide, 72 hours, serum-free DMEM, FIG. 1B
Procedure: as §1, §2

[3] = system: collagen type 1 (Col1a1); assay: Expression of extracellular matrix constituent factor in NIH3T3 cells (RT-PCR); type: cell-based, mouse; conditions: 50 μM or 100 μM peptide, 24 hours, FIG. 2, FIG. 3A
Procedure: (§3) In this example, the aim was to confirm the effect of the peptide according to an example on improving endogenous skin aging, including improvement of wrinkles and enhancement of elasticity, etc., by evaluating the expression levels of collagen type 1 (Col1a1), fibronectin, or elastin, which are known components of the dermis.
(§4) Specifically, NIH3T3 cells were seeded in a 6-well plate at a density of 3×10^5 cells/well and cultured for 24 hours. The cells were then washed once with serum-free DMEM media, and the culture medium was replaced with serum-free DMEM media. Thereafter, 50 μM or 100 μM of the peptide consisting of the amino acid sequence of SEQ ID NO: 1 was dispensed into the medium, and cultured in a CO2 incubator at 37° C. for 24 hours. The culture was then washed twice with PBS, and RNA was isolated from the culture using easy blue (iNtRON, Korea). Using an RT kit (Enzynomics, Korea), 1 μg of the isolated RNA was reverse transcribed to synthesize the respective cDNA. Polymerase chain reaction (PCR) was then performed using the cDNAs and primers Col1a1, fibronectin, and elastin. Meanwhile, the untreated group was used as the control group, and the group to which TGF-β1 was added (TGF-β1) was used as the positive control group, the nucleotide sequences of the primers used in this example are shown in Table 2 below.

[4] = system: elastin; assay: as above; type: cell-based, mouse; conditions: 50 μM or 100 μM peptide, 24 hours, FIG. 2, FIG. 3C
Procedure: as §3, §4

[5] = system: fibronectin; assay: as above; type: cell-based, mouse; conditions: 50 μM or 100 μM peptide, 24 hours, FIG. 2, FIG. 3B
Procedure: as §3, §4

[6] = system: aquaporin-3 (AQP3); assay: Expression of skin barrier factor in HaCaT cells (RT-PCR); type: cell-based, human; conditions: 50 μM or 100 μM peptide, 24 hours, FIG. 4, FIG. 5B
Procedure: (§5) In this example, the aim was to confirm the effect of the peptides according to an example on skin barrier defense, by evaluating the expression levels of sirtuin-1 (SIRT-1) or aquaporin-3 (AQP3).
(§6) Specifically, HaCaT cells were seeded in a 6-well plate at a density of 3×10^5 cells/well and cultured for 24 hours. The cells were then washed once with serum-free DMEM media, and the culture medium was replaced with serum-free DMEM media. Thereafter, 50 μM or 100 μM of the peptide consisting of the amino acid sequence of SEQ ID NO: 1 was dispensed into the medium, and cultured in a CO2 incubator at 37° C. for 24 hours. The culture was then washed twice with PBS, and RNA was isolated from the culture using easy blue (iNtRON, Korea). Using the RT kit (Enzynomics, Korea), 1 ug of the isolated RNA was reverse transcribed to synthesize the respective cDNA. Polymerase chain reaction was then performed using the cDNAs and primers sirtuin-1and aquaporin-3. Meanwhile, the untreated group was used as the control group, and the group to which EGF was added (EGF) was used as the positive control group, the nucleotide sequences of the primers used in this example are shown in Table 3 below.

[7] = system: sirtuin-1 (SIRT-1); assay: as above; type: cell-based, human; conditions: 50 μM or 100 μM peptide, 24 hours, FIG. 4, FIG. 5A
Procedure: as §5, §6

[8] = system: NIH3T3 cells; assay: Inhibitory effect on apoptosis of skin cells induced by ultraviolet rays (survival rate, SRB); type: cell-based, mouse; conditions: 6 J/cm2 ultraviolet rays, 50 μM or 100 μM peptide, 72 hours, FIG. 6A
Procedure: (§7) In this example, the aim was to confirm the effect of the peptide according to an example on the inhibition of apoptosis or cell recovery of skin cells induced by ultraviolet rays, by evaluating the change in survival rate of skin cells whose apoptosis was induced by ultraviolet irradiation.
(§8) Specifically, NIH3T3 cells or HaCaT cells were seeded in a 96-well plate at a density of 1×10^4 cells/well and cultured for 24 hours. The cells were then washed once with serum-free DMEM media, the culture medium was replaced with serum-free DMEM media, and 50 μM or 100 μM of the peptide consisting of the amino acid sequence of SEQ ID NO: 1 was dispensed to the culture medium. The culture medium dispensed with the peptide was cultured in a CO2 incubator at 37° C. for 1 hour, transferred to an e-tube, mixed with 100 ul of PBS, and dispensed into a well plate. Afterwards, using a UV irradiator (VILBER LOURMAT, France), 6 J/cm2 ultraviolet rays were irradiated to NIH3T3 cells, and 15m J/cm2 ultraviolet rays were irradiated to HaCaT cells. The PBS in the well plate was then removed, 900 μL of the culture medium in which the peptides were dispensed was added, and the plate was cultured in a CO2 incubator at 37° C. for 72 hours. […] The dried culture was then dissolved in 20 mM Tris buffer solution and the absorbance at 560 nm was measured using a microplate reader (Molecular Devices, USA). […]

[9] = system: HaCaT cells; assay: as above; type: cell-based, human; conditions: 15m J/cm2 ultraviolet rays, 50 μM or 100 μM peptide, 72 hours, FIG. 6B
Procedure: as §7, §8

[10] = system: NIH3T3 cells; assay: Antioxidant effect on skin cells induced by ultraviolet rays (reactive oxygen species, flow cytometry); type: cell-based, mouse; conditions: 6 J/cm2 ultraviolet rays, 50 μM or 100 μM peptide, 24 hours, FIG. 7A
Procedure: (§9) In this example, the aim was to confirm the effect of the peptide according to an embodiment on the antioxidant effect of skin cells induced by ultraviolet rays, by evaluating the level of reactive oxygen species in skin cells increased by ultraviolet irradiation.
as §8, with “6-well” for “96-well”, “5×10^5” for “1×10^4”, “24” for “72”, “After washing” for “The dried culture was then dissolved in 20 mM Tris buffer solution and”, “centrifuged cells with PBS, FL1 fluorescence values were” for “absorbance at 560 nm was”, “through flow cytometry (FACS, BD,” for “using a microplate reader (Molecular Devices,”

[11] = system: HaCaT cells; assay: as above; type: cell-based, human; conditions: 15m J/cm2 ultraviolet rays, 50 μM or 100 μM peptide, 24 hours, FIG. 7B
Procedure: as §9
as §8, with “6-well” for “96-well”, “5×10^5” for “1×10^4”, “24” for “72”, “After washing” for “The dried culture was then dissolved in 20 mM Tris buffer solution and”, “centrifuged cells with PBS, FL1 fluorescence values were” for “absorbance at 560 nm was”, “through flow cytometry (FACS, BD,” for “using a microplate reader (Molecular Devices,”

Sequence: IHGTYKELLDTVTAP (Peptide 1) [SEQ ID NO: 1]
- proliferation of fibroblasts [1]: promoted
- proliferation of keratinocytes [2]: promoted
- expression of Col1a1 [3]: increased
- expression of elastin [4]: increased
- expression of fibronectin [5]: increased
- expression of AQP3 [6]: increased
- expression of SIRT-1 [7]: increased
- cell survival rate of fibroblasts reduced by ultraviolet irradiation [8]: restored
- cell survival rate of keratinocytes reduced by ultraviolet irradiation [9]: restored
- level of reactive oxygen species in fibroblasts increased by ultraviolet irradiation [10]: reduced
- level of reactive oxygen species in keratinocytes increased by ultraviolet irradiation [11]: reduced
